Values quoted from earlier work, collected in patent US8647680B2, “Methods and compositions for treatment of lesioned sites of body vessels” (Abbott Cardiovascular Systems Inc., priority 2006, dated 2014).

What was measured:
macrophage cells = conditions: oral administration

Compound	apoptosis of macrophage cells (macrophage cells)	solubility in water
N=C(N)NCCC[C@H](N)C(=O)O [L-arginine]	increased apoptosis of macrophage cells	
[N]=O [nitric oxide]		2000 to 3000 µM
